Assay results from paper PMC9311615 (Antibiotics, 2022).
Where two headings read alike, the source gives them in different places.

Legend:
[1] = Daptomycin plasma concentrations, routine TDM, HPLC-UV; conditions: for Daptomycin plasma concentration 1 h, mean ± SD: peak; for Daptomycin plasma concentration 23.5 h, mean ± SD: trough
Description: This work was conducted in the framework of DAPTOLIN, an observational retrospective study approved by the Ethics Committee of the Azienda OspedalieroUniversitaria Pisana (AOUP protocol number 55945). […] Patients with incomplete medical records were excluded. […] After the first round, in which 134 patients were included, the dataset was split in 2 subsets through an iterative stratified sampling procedure [21]. The covariates considered for subset balancing were sex, weight, CrCl (calculated through the Cockroft-Gault equation), serum albumin and serum total protein concentration. During the second round, 22 further patients were included, to reach a total of 156 included patients.
Venous blood samples were collected in heparinized tubes and centrifuged immediately after. The extracted plasma was then stored at −20 °C until subsequent analysis.
The quantification technique was based on the novel HPLC-UV method developed and described by Luci and colleagues [22]. Briefly, plasma samples were firstly purified using a 95:5 v/v mixture of acetonitrile and 85% H3PO4, to induce protein precipitation. Samples were then vortexed for 30 s and centrifuged at 7700 rpm for 15 min. […] The mobile phase, composed of a 54:46 v/v mixture of 20 mM KH2PO4 and acetonitrile at pH 3.2, was pumped in the HPLC system at a 1 mL/min flowrate, while the chromatographic column temperature was kept at 35 °C. These conditions allowed the optimal separation of analytes in a 10 min-long chromatographic run.

[2] = Population pharmacokinetic model (NONMEM), one-compartment first-order elimination
Description: Basic model building was performed using the building subset (n = 94), through PsN-controlled NONMEM iterative runs. One- and two- compartment models with first-order elimination, parametrized in terms of drug Cl and Vd, were evaluated. Residual error was described using additive, proportional or mixed error models. Models were compared based on the following aspects: (1) minimization of the OFV; (2) standard errors and confidence intervals of parameter estimates, calculated for each model through NONMEM correlation matrices and PsN-controlled bootstrap method; (3) goodness-of-fit plots generated with Xpose4 [24]; (4) plausibility of parameter estimates, according to the literature.
The preliminary covariate screening was performed through several Xpose4 functions, which are as follows: (1) graphic analysis of covariate-covariate plots to exclude redundancies, (2) graphic analysis of parameters-covariate plots, (3) generalized additive model (GAM) to search for the covariates that minimized the most of Akaike’s information criterion (AIC) value. Covariate model building was based on the least absolute shrinkage and selection operator method, which is automated within the “lasso” Perl command [17]. Further insights on covariates effect were collected with the same methods, after the second patient enrollment round.
The final model was validated both with internal and external approaches. The former one was performed through the following steps: (1) a visual predictive check (VPC), namely a concentration-time plot, where the mean and 5th and 95th percentile of real data are superimposed to the respective descriptive measures of simulated concentrations; (2) a numeric predictive check, which assesses abnormal trends in the DV/iPRED ratio for different statistical confidence intervals; (3) a bootstrap of the model, which calculates the bias between final parameters estimates and the means estimated through 1500 further runs of the same model, based on a random resampling from the same dataset; (4) calculation of η- and ε-shrinkage, as described in the following equations:(3) ηshrink=1−stdev(ηest)/ω (4) εshrink=1−stdev(IWRES)

[3] = system: E. faecium; conditions: Monte-Carlo on Dvorchik's pop-PK model, cited from earlier work
[4] = daily dose 6–7 mg/kg, n = 96 patients
[5] = daily dose 8–9 mg/kg, n = 32 patients
[6] = daily dose 10–11 mg/kg, n = 8 patients

SMILES: CCCCCCCCCC(=O)N[C@@H](Cc1c[nH]c2ccccc12)C(=O)N[C@H](CC(N)=O)C(=O)N[C@@H](CC(=O)O)C(=O)N[C@@H]1C(=O)NCC(=O)N[C@@H](CCCN)C(=O)N[C@@H](CC(=O)O)C(=O)N[C@H](C)C(=O)N[C@@H](CC(=O)O)C(=O)NCC(=O)N[C@H](CO)C(=O)N[C@@H]([C@H](C)CC(=O)O)C(=O)N[C@@H](CC(=O)c2ccccc2N)C(=O)O[C@@H]1C [Daptomycin]
- Daptomycin plasma concentration 1 h, mean ± SD ([1]; daily dose 12 mg/kg, n = 4 patients): 80.0 ± 25.7
- Daptomycin plasma concentration 23.5 h, mean ± SD ([1]; daily dose 4–5 mg/kg, n = 15 patients): 11.4 ± 8.7
- Daptomycin plasma concentration 1 h, mean ± SD [1, 4]: 59.3 ± 18.0
- Daptomycin plasma concentration 23.5 h, mean ± SD [1, 4]: 17.8 ± 11.0
- Daptomycin plasma concentration 1 h, mean ± SD [1, 5]: 74.4 ± 51.3
- Daptomycin plasma concentration 23.5 h, mean ± SD [1, 5]: 15.5 ± 10.7
- Daptomycin plasma concentration 1 h, mean ± SD [1, 6]: 69.8 ± 21.7
- Daptomycin plasma concentration 23.5 h, mean ± SD [1, 6]: 25.4 ± 14.1
- Cl (θ1), bootstrap mean ([2]; 1500-samples bootstrap): 0.631 L/h
- V (θ2), bootstrap mean ([2]; 1500-samples bootstrap): 10.935 L
- kCrCl (θ5), bootstrap mean ([2]; 1500-samples bootstrap): 0.128
- kSex (θ6), bootstrap mean ([2]; 1500-samples bootstrap): −2.484
- Vd ([2]; human, in vivo): 10.9 L
- clearance ([2]; human, in vivo): 10.6 mL/min
- CFR against E. faecium reported by Turnidge et al. ([3]; 8 mg/kg × MIC 2): 80.4%
- CFR against E. faecium reported by Turnidge et al. ([3]; 10 mg/kg × MIC 2): 92.9%
